Measurements from US8735406B2, “8-oxodihydropurine derivative” (Dainippon Sumitomo Pharma Co., Ltd., priority 2009, dated 2014).

Target: T1, FAAH (Rattus norvegicus, UniProt P97612)
T1 construct: Preparation of Rat Brain Membranes Preparations (FAAH Enzyme Solution); from tissue; host or cells: rat cerebrum (brain membrane preparation)
T1 sequence (P97612 1-579): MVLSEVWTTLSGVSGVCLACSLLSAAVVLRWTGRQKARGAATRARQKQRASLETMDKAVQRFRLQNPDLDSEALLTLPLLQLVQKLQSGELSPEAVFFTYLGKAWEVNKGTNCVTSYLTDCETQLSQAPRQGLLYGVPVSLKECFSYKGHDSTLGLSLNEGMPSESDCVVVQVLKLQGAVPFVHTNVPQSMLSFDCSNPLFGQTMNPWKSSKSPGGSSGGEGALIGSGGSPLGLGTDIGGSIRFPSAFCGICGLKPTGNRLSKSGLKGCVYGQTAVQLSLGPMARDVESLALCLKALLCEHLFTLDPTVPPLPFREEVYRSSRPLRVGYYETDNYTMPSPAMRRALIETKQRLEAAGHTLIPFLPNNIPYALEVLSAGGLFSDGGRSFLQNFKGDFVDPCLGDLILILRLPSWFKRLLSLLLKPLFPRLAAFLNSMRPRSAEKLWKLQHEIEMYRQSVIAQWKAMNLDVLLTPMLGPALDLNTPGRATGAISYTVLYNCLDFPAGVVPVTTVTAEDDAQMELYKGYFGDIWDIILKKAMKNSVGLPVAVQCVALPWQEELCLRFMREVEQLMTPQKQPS
Experiment: Determination of FAAH inhibitory activity in rat (rat brain membrane preparations, [3H]-anandamide hydrolysis)
Assay type: biochemical
Settings: rat brain membrane preparations; for inhibition at 0.1 µM: 100 nM test substance, read-out: FAAH Inhibition, Inhibition Rate at 100 nM; for IC50: test substance 0.1 nM to 1 μM, read-out: FAAH Inhibition IC50
Outline: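 Compounds tested from 0.1 nM to 1 μM to derive IC50 against FAAH hydrolysis in rat brain membrane preparations (100 μg/mL). A 10-min 37 °C preincubation was followed by 10 min with [3H]-anandamide (2 nM) mixed with 2 μM unlabelled anandamide. Radioactive ethanolamine was extracted into the water/methanol layer and counted.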

Work on Cn1c(=O)n(C(=O)N2CCCC2)c2cnc(-c3ccccc3F)nc21 [Example 166, 2-(2-fluorophenyl)-9-methyl-7-(pyrrolidin-1-ylcarbonyl)-7,9-dihydro-8H-purine-8-one] yielded an inhibition at 0.1 µM of 99% and an IC50 of 24 nM.

In the case of Cn1c(=O)n(C(=O)N2CCCC2)c2cnc(-c3cccc(F)c3)nc21 [Example 167, 2-(3-Fluorophenyl)-9-methyl-7-(pyrrolidin-1-ylcarbonyl)-7,9-dihydro-8H-purine-8-one], the inhibition at 0.1 µM is reported as 101% and the IC50 is reported as 6 nM.

With Cn1c(=O)n(C(=O)N2CCCC2)c2cnc(-c3ccc(F)cc3)nc21 [Example 168, 2-(4-Fluorophenyl)-9-methyl-7-(pyrrolidin-1-ylcarbonyl)-7,9-dihydro-8H-purine-8-one] the inhibition at 0.1 µM was 100% and the IC50 was 6 nM.

For Cc1cccc(-c2ncc3c(n2)n(C)c(=O)n3C(=O)N2CCCC2)c1 [Example 170, 9-Methyl-2-(3-methylphenyl)-7-(pyrrolidin-1-ylcarbonyl)-7,9-dihydro-8H-purine-8-one], the inhibition at 0.1 µM was 98% and the IC50 was 7 nM.

For Cc1ccc(-c2ncc3c(n2)n(C)c(=O)n3C(=O)N2CCCC2)cc1 [Example 171, 9-Methyl-2-(4-methylphenyl)-7-(pyrrolidin-1-ylcarbonyl)-7,9-dihydro-8H-purine-8-one], the inhibition at 0.1 µM was 102% and the IC50 was 19 nM.

For COc1cccc(-c2ncc3c(n2)n(C)c(=O)n3C(=O)N2CCCC2)c1 [Example 173, 2-(3-Methoxyphenyl)-9-methyl-7-(pyrrolidin-1-ylcarbonyl)-7,9-dihydro-8H-purine-8-one], the inhibition at 0.1 µM was 101% and the IC50 was 7 nM.

In the case of CN(C)c1ccc(-c2ncc3c(n2)n(C)c(=O)n3C(=O)N2CCCC2)cc1 [Example 182, 2-[4-(Dimethylamino)phenyl]-9-methyl-7-(pyrrolidin-1-ylcarbonyl)-7,9-dihydro-8H-purine-8-one], the inhibition at 0.1 µM is reported as 100% and the IC50 is reported as 28 nM.

CSc1ccc(-c2ncc3c(n2)n(C)c(=O)n3C(=O)N2CCCC2)cc1 [Example 183, 9-Methyl-2-[4-(methylsulfanyl)phenyl]-7-(pyrrolidin-1-ylcarbonyl)-7,9-dihydro-8H-purine-8-one] showed an inhibition at 0.1 µM of 101% and an IC50 of 3 nM.

With Cn1c(=O)n(C(=O)N2CCCC2)c2cnc(-c3cccc(F)c3F)nc21 [Example 187, 2-(2,3-Difluorophenyl)-9-methyl-7-(pyrrolidin-1-ylcarbonyl)-7,9-dihydro-8H-purine-8-one] the inhibition at 0.1 µM was 100% and the IC50 was 7 nM.

Molecule Cn1c(=O)n(C(=O)N2CCCC2)c2cnc(-c3cc(F)ccc3F)nc21 [Example 189, 2-(2,5-Difluorophenyl)-9-methyl-7-(pyrrolidin-1-ylcarbonyl)-7,9-dihydro-8H-purine-8-one] has an inhibition at 0.1 µM of 100% and an IC50 of 7 nM.

For COc1cccc(-c2ncc3c(n2)n(C)c(=O)n3C(=O)N2CCCC2)c1F [Example 196, 2-(2-Fluoro-3-methoxyphenyl)-9-methyl-7-(pyrrolidin-1-ylcarbonyl)-7,9-dihydro-8H-purine-8-one], the inhibition at 0.1 µM was 101% and the IC50 was 23 nM.

COc1ccc(F)c(-c2ncc3c(n2)n(C)c(=O)n3C(=O)N2CCCC2)c1 [Example 200, 2-(2-Fluoro-5-methoxyphenyl)-9-methyl-7-(pyrrolidin-1-ylcarbonyl)-7,9-dihydro-8H-purine-8-one] was tested, and the inhibition at 0.1 µM was 97% and the IC50 was 30 nM.

Work on Cc1cc(F)cc(-c2ncc3c(n2)n(C)c(=O)n3C(=O)N2CCCC2)c1 [Example 201, 2-(3-Fluoro-5-methylphenyl)-9-methyl-7-(pyrrolidin-1-ylcarbonyl)-7,9-dihydro-8H-purine-8-one] yielded an inhibition at 0.1 µM of 99% and an IC50 of 26 nM.

Cn1c(=O)n(C(=O)N2CCCC2)c2cnc(-c3cccc(OCc4ccccc4)c3)nc21 [Example 202, 2-(3-benzyloxyphenyl)-9-methyl-7-(pyrrolidin-1-ylcarbonyl)-7,9-dihydro-8H-purine-8-one] gave an inhibition at 0.1 µM of 53% and an IC50 of 95 nM.

For Cn1c(=O)n(C(=O)N2CCCC2)c2cnc(-c3cccc([N+](=O)[O-])c3)nc21 [Example 203, 2-(3-nitrophenyl)-9-methyl-7-(pyrrolidin-1-ylcarbonyl)-7,9-dihydro-8H-purine-8-one], the inhibition at 0.1 µM was 98% and the IC50 was 24 nM.

With Cn1c(=O)n(C(=O)N2CCCC2)c2cnc(-c3cccnc3)nc21 [Example 205, 9-Methyl-2-(pyridin-3-yl)-7-(pyrrolidin-1-ylcarbonyl)-7,9-dihydro-8H-purine-8-one] the inhibition at 0.1 µM was 98% and the IC50 was 5 nM.

COc1ccc(-c2ncc3c(n2)n(C)c(=O)n3C(=O)N2CCCC2)cn1 [Example 206, 2-(6-Methoxypyridin-3-yl)-9-methyl-7-(pyrrolidin-1-ylcarbonyl)-7,9-dihydro-8H-purine-8-one] was tested, and the inhibition at 0.1 µM was 98% and the IC50 was 4 nM.

With Cn1c(=O)n(C(=O)N2CCCC2)c2cnc(-c3ccc(F)nc3)nc21 [Example 207, 2-(6-Fluoropyridine-3-yl)-9-methyl-7-(pyrrolidin-1-ylcarbonyl)-7,9-dihydro-8H-purine-8-one] the inhibition at 0.1 µM was 99% and the IC50 was 6 nM.

Cn1c(=O)n(C(=O)N2CCCC2)c2cnc(-c3ccncc3)nc21 [Example 213, 9-Methyl-2-(pyridin-4-yl)-7-(pyrrolidin-1-ylcarbonyl)-7,9-dihydro-8H-purine-8-one] gave an inhibition at 0.1 µM of 100% and an IC50 of 5 nM.

Cn1c(=O)n(C(=O)N2CCCC2)c2cnc(-c3ccnc(Cl)c3)nc21 [Example 214, 2-(2-Chloropyridin-4-yl)-9-methyl-7-(pyrrolidin-1-ylcarbonyl)-7,9-dihydro-8H-purine-8-one] gave an inhibition at 0.1 µM of 99% and an IC50 of 18 nM.

Cn1c(=O)n(C(=O)N2CCCC2)c2cnc(-c3ccnc(F)c3)nc21 [Example 215, 2-(2-Fluoropyridin-4-yl)-9-methyl-7-(pyrrolidin-1-ylcarbonyl)-7,9-dihydro-8H-purine-8-one] gave an inhibition at 0.1 µM of 98% and an IC50 of 10 nM.

Cn1c(=O)n(C(=O)N2CCCC2)c2cnc(-c3cc4ccccc4o3)nc21 [Example 216] was tested, and the inhibition at 0.1 µM was 99% and the IC50 was 7 nM.

C/C=C/c1ncc2c(n1)n(C)c(=O)n2C(=O)N1CCCC1 [Example 217] gave an inhibition at 0.1 µM of 99% and an IC50 of 27 nM.

In the case of Cn1c(=O)n(C(=O)N2CCCC2)c2cnc(C3=CCCCC3)nc21 [Example 218, 2-(cyclohexen-1-yl)-9-methyl-7-(pyrrolidin-1-ylcarbonyl)-7,9-dihydro-8H-purine-8-one], the inhibition at 0.1 µM is reported as 95% and the IC50 is reported as 25 nM.

CCN(C)C(=O)n1c(=O)n(C)c2nc(-c3cccnc3)ncc21 [Example 219, N-Ethyl-N,9-dimethyl-8-oxo-2-(pyridin-3-yl)-8,9-dihydro-7H-purine-7-carboxamide] gave an inhibition at 0.1 µM of 96% and an IC50 of 9 nM.

CCN(C)C(=O)n1c(=O)n(C)c2nc(-c3ccncc3)ncc21 [Example 220, N-Ethyl-N,9-dimethyl-8-oxo-2-(pyridin-4-yl)-8,9-dihydro-7H-purine-7-carboxamide] gave an inhibition at 0.1 µM of 105% and an IC50 of 7 nM.

Work on CCN(C)C(=O)n1c(=O)n(C)c2nc(-c3ccnc(F)c3)ncc21 [Example 221, N-Ethyl-2-(2-fluoropyridin-4-yl)-N,9-dimethyl-8-oxo-8,9-dihydro-7H-purine-7-carboxamide] yielded an inhibition at 0.1 µM of 100% and an IC50 of 4 nM.

CN(CCc1ccc(Cl)cc1)C(=O)n1c(=O)n(C)c2nc(-c3ccnc(F)c3)ncc21 [Example 222, N-[2-(4-Chlorophenyl)ethyl]-2-(2-fluoropyridin-4-yl)-N,9-dimethyl-8-oxo-8,9-dihydro-7H-purine-7-carboxamide] gave an inhibition at 0.1 µM of 99% and an IC50 of less than 1 nM.

Molecule CN(CCC1CCCCC1)C(=O)n1c(=O)n(C)c2nc(-c3ccncc3)ncc21 [Example 223, N-(2-Cyclohexylethyl)-N,9-dimethyl-8-oxo-2-(pyridin-4-yl)-8,9-dihydro-7H-purine-7-carboxamide] has an inhibition at 0.1 µM of 105% and an IC50 of less than 1 nM.

Molecule Cn1c(=O)n(C(=O)N2CCCC2)c2nc(-c3ccccc3)ncc21 [Example 224, 7-Methyl-2-phenyl-9-(pyrrolidin-1-ylcarbonyl)-7,9-dihydro-8H-purine-8-one] has an inhibition at 0.1 µM of 91% and an IC50 of 53 nM.

In the case of Cn1c(=O)n(C(=O)N2CCCC2)c2nc(-c3cccc(F)c3)ncc21 [Example 226, 2-(3-Fluorophenyl)-7-methyl-9-(pyrrolidin-1-ylcarbonyl)-7,9-dihydro-8H-purine-8-one], the inhibition at 0.1 µM is reported as 99% and the IC50 is reported as 27 nM.

Molecule Cn1c(=O)n(C(=O)N2CCCC2)c2nc(-c3ccc(F)cc3)ncc21 [Example 227, 2-(4-Fluorophenyl)-7-methyl-9-(pyrrolidin-1-ylcarbonyl)-7,9-dihydro-8H-purine-8-one] has an inhibition at 0.1 µM of 97% and an IC50 of 34 nM.
